From US20250042918A1, “COMPOUNDS” (Fundación Del Sector Públlco Estatal Centro Nacional De …, priority 2021, published 2025)
pIC50: −log10 of the molar value.

Key:
Type in all cases: cell-based
HCC1954 = assay: In vitro potency against breast cancer cell lines (CellTiter Glo); conditions: Homo sapiens, HCC1954, 72 h; read-out: absolute IC50 HCC1954
Description: (§1) To prepare the complete medium FBS and appropriate additives were added according to the information sheet provided by the vendor and mixed gently. The cell name and complete medium and passage number marked on the flask were checked, and the culture medium removed and discarded using a vacuum pump. […] 3.0 ml of Trypsin-EDTA solution was added to the flask and the cells observed under an inverted microscope until cell layer is dispersed. 8.0 ml of complete growth medium was added and the cells aspirated by gently pipetting. The cell suspension was transferred to a centrifuge tube and centrifuged at 800-1000 rpm for 3-5 minutes. The supernatant was discarded using a vacuum pump, and an appropriate volume of complete medium added. The cell pellet was suspended by gently pipetting, and the cell numbers counted with Vi-cell XR and the cells adjusted to appropriate density. 100 μL of cell suspension to 96-well opaque-walled clear bottom plates was added according to the planned plate layout and the plates placed in the CO2 incubator overnight.
(§2) c. […] Meanwhile the day 0 plate was measured by Cell TiterGlo as listed below.
(§3) d. Cells were incubated with the compounds for 72 h at 5% CO2, 37° C.
(§4) The CellTiter-Glo buffer was thawed and equilibrated to room temperature prior to use. The lyophilized CellTiter-Glo substrate was equilibrated to room temperature prior to use. The appropriate volume of CellTiter-Glo buffer was transferred into the amber bottle containing CellTiter-Glo substrate to reconstitute the lyophilized enzyme/substrate mixture, thereby forming the CellTiter-Glo reagent. Mixing was carried out by gently vortexing, swirling or by inverting the contents to obtain a homogeneous solution, the CellTiter-Glo substrate going into solution easily in less than one minute.
(§5) The plate and its contents were equilibrated to room temperature for approximately 30 minutes, after which 100 μL of CellTiter-Glo reagent was added to the assay plate by Multidrop Combi instrument and the contents mixed for 10 minutes on an orbital shaker to induce cell lysis. The plate was allowed to incubate at room temperature for 10 minutes to stabilize luminescent signal and the clear bottom pasted with white back seal and the luminescence recorded with Enspire with the settings: Luminescence, measurement time 0.1 ms.

MDA-MB-361 = assay: as above; conditions: Homo sapiens, MDA-MB-361, 72 h; read-out: absolute IC50 MDA-MB-361
Description: as §1, §2, §3, §4, §5

BT-474 = assay: as above; conditions: Homo sapiens, BT-474, 72 h; read-out: absolute IC50 BT-474
Description: as §1, §2, §3, §4, §5

T-47D = assay: as above; conditions: Homo sapiens, T47D, 72 h; read-out: absolute IC50 T-47D
Description: as §1, §2, §3, §4, §5

HCC1143 = assay: as above; conditions: Homo sapiens, HCC1143, 72 h; read-out: absolute IC50 HCC1143
Description: as §1, §2, §3, §4, §5

HCC38 = assay: as above; conditions: Homo sapiens, HCC38, 72 h; read-out: absolute IC50 HCC38
Description: as §1, §2, §3, §4, §5

HL-60 = assay: In vitro potency against leukemia cell lines (CellTiter Glo); conditions: Homo sapiens, 72 hours, read-out: absolute IC50 HL-60
Description: as §1, §2, §3, §5
(§6) In all cases, the incubation time was 72 hours and the cell lines were grown as a suspension. The seeding density was […] in a 96 well plate.

Kasumi-3 = assay: as above; conditions: 72 hours, read-out: absolute IC50 Kasumi-3
Description: as §1, §2, §3, §5, §6

MV-4-11 = assay: as above; conditions: Homo sapiens, MV4-11; 72 hours; read-out: absolute IC50 MV-4-11
Description: as §1, §2, §3, §5, §6

Molm-13 = assay: as above; conditions: Homo sapiens, 72 hours, read-out: absolute IC50 Molm-13
Description: as §1, §2, §3, §5, §6

OCI-M1 = assay: as above; conditions: 72 hours, read-out: absolute IC50 OCI-M1
Description: as §1, §2, §3, §5, §6

Jeko-1 = assay: as above; conditions: Homo sapiens, 72 hours, read-out: absolute IC50 JeKo-1
Description: as §1, §2, §3, §5, §6

KG-1 = assay: as above; conditions: Homo sapiens, 72 hours, read-out: absolute IC50 KG-1
Description: as §1, §2, §3, §5, §6

SMILES: Cn1c(=O)n(-c2ccc(C(C)(C)C#N)cc2)c2c3cc(-c4cnc5ccccc5c4)ccc3ncc21 [Dactolisib, dactolisib]
- pIC50 (HCC1954): 7.84
- pIC50 (MDA-MB-361): 7.52
- pIC50 (BT-474): 6.94
- pIC50 (T-47D): 7.25
- pIC50 (HCC1143): 6.84
- pIC50 (HCC38): 7.18
- pIC50 (HL-60): 6.37
- pIC50 (Kasumi-3): 6.98
- pIC50 (MV-4-11): 7.44
- pIC50 (Molm-13): 7.35
- pIC50 (OCI-M1): 6.90
- pIC50 (Jeko-1): 7.17
- pIC50 (KG-1): 7.05
